Article PMC9884808, “Pharmacokinetics, tissue distribution, and antitumor activity of a novel compound, NY-2, in non-small cell lung cancer” (Frontiers in Pharmacology, 2023)

Key:
[1] = Tissue distribution in rats; assay type: in vivo, SD rats; settings: for blood-brain barrier penetration: rat brain tissue concentration very low; for order of concentrations in tissues: 5 min after administration
Protocol: After fasting for 12 h, 32 SD rats were randomly divided into eight groups of four rats each. Four groups were injected with ZLDI-8 via tail vein (6 mg/kg) at 5 min, 12, 24, and 48 h. The other four groups were injected with NY-2 (6 mg/kg) at the same time points. The heart, liver, spleen, lung, kidney, brain, muscle, and intestines were collected after cervical dislocation at the specified time points and tissue samples were removed. Samples were rinsed with normal saline at 0°C to remove residual blood and debris, blotted dry with filter paper, weighed, and stored at ˗20°C until used.

[2] = Pharmacokinetics in rats after tail vein injection; assay type: in vivo, Sprague-Dawley rats; settings: for Cmax / half-life / MRT last / AUC(0-inf) / AUC(0-t): male, Sprague-Dawley, plasma; for MRT last: read-out: MRT0-t; for AUC(0-inf) / AUC(0-t): 6 mg/kg
Text: We used the online ADME prediction tool Swiss AMDE (http://www.swissadme.ch/index.php) (SwissADME, 2017) to analyze the physicochemical descriptors and ADME parameters of NY-2 and ZLDI-8, to predict their pharmacokinetic properties, drug-like nature, and medicinal chemistry. […] Male Sprague-Dawley rats weighing 240 ± 20 g were purchased from Liaoning Changsheng Biotechnology Co., Ltd. (Liaoning, China, animal license #SCXK-2015-0001). Rats were used for the tissue distribution and pharmacokinetics experiments because of their larger body fluid volume. The rats were fasted for 12 h before the experiment but allowed to drink water freely. Animals were anesthetized with 4% chloral hydrate (0.5 mL/100 g), the total blood volume was collected from the abdominal aorta and quickly dispensed into heparinized EP tubes prepared in advance. The rats were euthanized after blood collection was completed. Plasma samples were subjected to a protein precipitation method for the quantitative analysis of ZLDI-8 and NY-2 by LC-MS/MS (API 3200MD, AB Sciex, United States). The samples were injected into the ionization source by the auto-sampler. A series of standard solutions of ZLDI-8 were prepared with final concentrations of 20, 50, 100, 250, 500, 1000, and 1500 ng/mL; and NY-2 was prepared with final concentrations of 100, 200, 500, 800, 1200, 1600, and 2000 ng/mL. The linear equation and correlation coefficient (r) of the regression curve were calculated from these concentrations and the corresponding absorption data. The specificity, lower limit of quantification (LLOQ), linear range, precision, accuracy, matrix effects, extraction recovery, stability of analytes during the whole process of storage, as well as treatment in a biological matrix and solution were determined to verify the reliability of the compound concentrations in vivo.
The plasma concentration-time concentration data of ZLDI-8 and NY-2 at different times were fitted by DAS2.0 pharmacokinetics software and the drug-time curve was drawn. The drug-time curves of the two compounds were compared and simulated, and a two-compartment model was selected to calculate the pharmacokinetic parameters using the statistical moment algorithm. The peak value (Cmax), half-life (t1/2), area under the curve (AUC0-t and AUC0-∞), plasma clearance rate (CL), mean retention time (MRT), and other parameters of the test data were expressed as mean ± SD. Statistical analyses were performed using GraphPad Prism 5 (GraphPad Software, San Diego, CA, United States), and all experiments were repeated at least three times. […] The experimental results are presented as mean ± SD or mean ± SEM, and significant differences are defined as p ≤ .05.
Plasma samples obtained after the SD rat tail vein injection of ZLDI-8 and NY-2 were processed and analyzed by HPLC-MS/MS, and the measured peak areas of ZLDI-8 and NY-2 were compared with the internal standard peak areas. The accompanying standard curves were used to calculate the plasma drug concentrations of each rat at different time points from the measured values. The plasma concentration-time data of ZLDI-8 and NY-2 at different times were fitted by DAS2.0 pharmacokinetic software, and the pharmacokinetic outcomes of the two compounds were obtained according to the two-compartment model and the pharmacokinetic parameters are shown in Table 2. The average plasma concentration-time curve after intravenous injection of 6 mg/kg compound ZLDI-8 and NY-2 was obtained by plotting the plasma concentrations against time.

HCT116 = test: MTT cell viability assay; assay type: cell-based, human; settings: Homo sapiens, HCT-116, HCT116 colorectal cancer cells
Protocol: The human colorectal cancer cell lines, HCT116 and LoVo, the breast cancer cell line, T47D, the hepatocellular carcinoma cell line, HepG2, the normal human liver cell line, HL7702, human umbilical vein endothelial cells (HUVECs), and the non-small cell lung cancer cell lines, A549, H1993, HCC827, H460, were purchased from the American Type Culture Collection (Manassas, VA, United States). Cell lines were cultured in the recommended RPMI-1640 medium (AE24464298, Hyclone, United States) and DMEM medium (AE29422278, Hyclone, United States) supplemented with 10% fetal bovine serum (FBS; JC63470, FB15015, Clark, United States) with 1% penicillin-streptomycin. Cells were maintained in an incubator at 37°C with 5% CO2 (HF90,Sanyo, Japan) and passaged every 48–72 h, after detaching with 0.25% trypsin (Sigma, United States). The compounds ZLDI-8 and NY-1 to -15 were synthesized in the laboratory of Dr. Huaiwei Ding in Shenyang Pharmaceutical University, and verified by high-performance liquid chromatography (purity >95%) for use in experiments (Supplementary Figure S1). Paclitaxel was purchased from MedChemExpress (HY-B0015, 99.97% purity, United States).
Cell viability was measured by the MTT assay. HCT116, HL7702, A549, H1993, HCC827, and H460 cells were dispensed into 96-well plates at a density of 1 × 10^5 cells/mL. After 24–48 h incubation, cells were treated with the compounds at different concentrations for the indicated periods. An assay kit (WLA073, Wanlei Co., Liaoning, China), was used according to the manufacturer’s instructions to measure LDH activity, The absorbance at 450 nm was measured with a microplate reader (Elx-800, Bio-Rad, China).
The preliminary antitumor activity of the series of ZLDI-8 derivatives, NY-1 to -15 was screened by the MTT cell viability assay. […] The antitumor activity of NY-2 on HCT116 cells was concentration- and time-dependent, and slightly better than that of the original compound, ZLDI-8.

[3] = intravenous, rat, tail vein injection 6 mg/kg, mean ± SD, n = 6
[4] = iv, rat, tail vein injection 6 mg/kg, mean ± SD, n = 6
[5] = rat, iv, intravenous injection 6 mg/kg
[6] = rat, iv, tail vein injection 6 mg/kg, mean ± SD, n = 6

SMILES | blood-brain barrier penetration [1] | concentration in the brain ([1]; rat, tail vein 6 mg/kg) | tissue with the highest concentration ([1]; rat, tail vein 6 mg/kg) | order of concentrations in tissues ([1]; rat, tail vein 6 mg/kg) | Cmax [2, 3] [ng/mL] | Cmax [2, 4] [ng/mL] | half-life [2, 4] [min] | MRT last [2, 4] [min] | AUC(0-inf) [2, 5] [ng·h/mL] | AUC(0-t) [2, 5] [ng·h/mL] | AUC(0-inf) [2, 6] [ng·h/mL] | AUC(0-t) [2, 6] [ng·h/mL] | MRT0-t of NY-2 relative to ZLDI-8 (printed: lower) ([2]; rat, 6 mg/kg iv) [times] | plasma clearance (CL) of NY-2 as share of ZLDI-8's ([2]; rat, 6 mg/kg iv) [%] | t1/2 of NY-2 relative to ZLDI-8 (longer) ([2]; rat, 6 mg/kg iv) | CLZ rate of NY-2 as fraction of that of ZLDI-8 ([2]; rats) | IC50 (HCT116) [µM]
Cc1c(C=C2C(=O)NC(=S)NC2=O)c2ccccc2n1CCOc1ccc(F)cc1 [NY-2] | do not readily penetrate the blood-brain barrier | almost zero | highest in the lung | lung > liver > spleen > heart > kidney > intestines > brain > muscle | 2750 | 2750 ± 1110 | 129 ± 37.2 | 64.2 ± 9.6 | 402 | 370 | 402 ± 130 | 370 ± 111 | 3.5 | 22.2 | approximately 3.6 fold | 1/5 | 5.35
Cc1ccc(OCCn2c(C)c(C=C3C(=O)NC(=S)NC3=O)c3ccccc32)c(C)c1 [ZLDI-8, reference compound] | do not readily penetrate the blood-brain barrier | almost zero | – | lung > liver > spleen > heart > kidney > intestines > brain > muscle | 337 | 337 ± 19.4 | 35.4 ± 15.6 | 18.6 ± 1.2 | 85.2 | 58.8 | 85.2 ± 26.3 | 58.8 ± 4.62 | – | – | – | – | 7.72
